Test results reported in patent publication EP0434360A1, “New benziodiazepine analogs” (MERCK & CO. INC., priority 1989, dated 1991).
pIC50: −log10 of the molar value. Like-named read-outs stand apart in the source and are kept apart here.

Assays:
CCK receptor (pancreas) = molecular target: T1, CCK receptor (pancreas) (Rattus norvegicus, UniProt P30551); experiment: CCK Receptor Binding (Pancreas), inhibition of 125I-CCK-33 binding; settings: for IC50: rat pancreas membranes, 125I-CCK-33, 37°C 30 minutes, read-out: IC50(µM) ^125I-CCK Pancreas
T1 construct: The whole pancreas was dissected free of fat tissue and was homogenized; from tissue; host or cells: rat whole pancreas membrane homogenate
T1 sequence (P30551 1-444): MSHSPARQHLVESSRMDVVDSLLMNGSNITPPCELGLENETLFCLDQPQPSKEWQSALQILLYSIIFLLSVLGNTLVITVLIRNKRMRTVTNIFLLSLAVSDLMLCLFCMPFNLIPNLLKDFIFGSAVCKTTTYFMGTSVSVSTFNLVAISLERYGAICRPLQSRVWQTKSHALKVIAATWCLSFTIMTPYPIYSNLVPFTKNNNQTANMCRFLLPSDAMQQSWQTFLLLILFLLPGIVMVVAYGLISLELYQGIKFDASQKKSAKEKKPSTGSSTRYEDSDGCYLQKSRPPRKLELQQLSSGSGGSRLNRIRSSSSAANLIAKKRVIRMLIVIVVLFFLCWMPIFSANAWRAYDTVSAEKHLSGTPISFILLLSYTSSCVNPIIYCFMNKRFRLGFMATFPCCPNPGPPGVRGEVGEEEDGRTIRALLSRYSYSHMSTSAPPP
Protocol: 1. CCK Receptor Binding (Pancreas)
CCK-33 was radiolabeled with ^1251-Bolton Hunter reagent (2000 Cilmmole) as described by Sankara et al. (J. Biol. Chem. 254: 9349-9351, 1979). Receptor binding was performed according to Innis and Snyder (Proc. Natl. Acad. Sci. 77 6917-6921, 1980) with the minor modification of adding the additional protease inhibitors, phenyl-methane sulfonyl fluoride and o-phenanthroline.
Male Sprague-Dawley rats (200-350 g) were sacrificed by decapitation. The whole pancreas was dissected free of fat tissue and was homogenized in 20 volumes of ice-cold 50 mM, Tris HCI (pH 7.7 at 25°C) with a Brink- mann Polytron PT 10. The homogenates were centrifuged at 48,000 g for 10 min. Pellets were resuspended in Tris Buffer, centrifuged as above and resuspended in 200 volumes of binding assay buffer (50 mM Tris HCI, pH 7.7 at 25°C, 5 mM dithiothrietol, 0.1 mM bacitracin, 1.2 mM phenyl-methane sulfonyl fluoride and 0.5 mM o-phenanthroline). […] All assays were run in duplicate or triplicate. The reaction mixtures were incubated at 37°C for30 minutes and centrifuged in a Beckman Microfuge (4 minutes) immediately after adding 1 ml of ice-cold incubation buffer. The supernatant was aspirated and discarded, pellets were counted with a Beckman gamma 5000. For Scatchard analysis (Ann. N.Y. Acad. Sci. 51 : 660, 1949), ^125I-CCK-33 was progressively diluted with increasing concentrations of CCK-33.

[1] = molecular target: T2, gastrin receptor (gastric glands) (Cavia porcellus, UniProt H0VZC5); experiment: Gastrin Receptor Binding in Guinea Pig Gastric Glands; settings: for IC50: guinea pig gastric mucosal glands, 125I-gastrin, 25°C 30 minutes, read-out: IC50(µM) ^125I-Gastrin Gastric Glands
T2 construct: The washed guinea pig gastric glands prepared as above were resuspended in 25 ml of standard buffer; from tissue; host or cells: isolated guinea pig gastric mucosal glands (collagenase-dispersed)
T2 sequence (H0VZC5 1-426): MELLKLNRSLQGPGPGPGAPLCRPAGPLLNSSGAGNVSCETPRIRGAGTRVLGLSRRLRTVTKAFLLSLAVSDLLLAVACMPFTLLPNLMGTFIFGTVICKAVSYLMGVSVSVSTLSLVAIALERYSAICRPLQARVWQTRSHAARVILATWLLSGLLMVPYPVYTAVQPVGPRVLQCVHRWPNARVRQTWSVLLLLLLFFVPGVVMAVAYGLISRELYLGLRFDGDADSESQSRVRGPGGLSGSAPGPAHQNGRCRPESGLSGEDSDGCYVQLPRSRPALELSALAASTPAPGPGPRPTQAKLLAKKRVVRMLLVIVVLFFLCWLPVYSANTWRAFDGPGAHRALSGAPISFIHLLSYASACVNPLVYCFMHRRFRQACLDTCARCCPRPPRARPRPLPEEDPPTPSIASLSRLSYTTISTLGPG

[2] = molecular target: T3, CCK receptor (brain, cerebral cortex) (Cavia porcellus, UniProt H0VZC5); experiment: CCK Receptor Binding (Brain), inhibition of 125I-CCK-33 binding; design: species or system guinea pig; settings: for IC50: guinea pig cerebral cortex membranes, 125I-CCK-33, 25°C 2 hours, read-out: IC50(µM) ^125I-CCK Brain
T3 construct: Cerebral cortex was dissected and used as a receptor source; from tissue; host or cells: guinea pig cerebral cortex membrane homogenate
T3 sequence (H0VZC5 1-426): T2 sequence (H0VZC5 1-426)
Protocol: 2. CCK Receptor Binding (Brain)
CCK-33 was radiolabeled and the binding was performed according to the description for the pancreas method with modifications according to Saito et al., J. Neurochem. 37: 483-490, 1981.
Male Hartley guinea pigs (300-500 g) were sacrificed by decapitation and the brains were removed and placed in ice-cold 50 mM, Tris HCI plus 7.58 g/l Trizma-7.4 (pH 7.4 at 25°C). Cerebral cortex was dissected and used as a receptor source. Each gram of fresh guinea pig brain tissue was homogenized in 10 ml of Tris/Trizma buffer with a Brinkman polytron PT-10. The homogenates were centrifuged at 42,000 g for 15 minutes. Pellets were resuspended in Tris Buffer, centrifuged as above and resuspended in 200 volumes of binding assay buffer (10 mM N-2-hydroxyethyl-piperazine-N'-2-ethane sulfonic acid (HEPES), 5 mM MgCl2, 0.25 mg/ml bacitracin, 1 mM ethylene glycol-bis-(β-aminoethylether-N,N'-tetraacetic acid) (EGTA), and 0.4% bovine serum albumin (BSA)). […] All assays were run in duplicate or triplicate. The reaction mixtures were incubated at 25°C for 2 hours and centrifuged in a Beckman Microfuge (4 minutes) immediately after adding 1 ml of ice-cold incubation buffer. The supernatant was aspirated and discarded, pellets were counted with a Beckman gamma 5000.

Row | Structure (SMILES) | pIC50 (CCK receptor (pancreas)) | pIC50 [1] | pIC50 [2] | IC50 [1] [µM] | IC50 [2] [µM] | IC50 (CCK receptor (pancreas)) [µM]
1 | CN1C(=O)C(NC(=O)Nc2cccc(C(=O)O)c2)N=C(c2ccccc2)c2ccccc21 (racemic) [Example 9, (RS)-3-((((2,3-Dihydro-1-methyl-2-oxo-5-phenyl-1 H-1,4-benzodiazepin-3-yl)amino)carbonyl)amino)benzoic acid] | 7.31 | 8.05 | 8.41 | – | – | –
2 | O=C(NC1N=C(c2ccccc2)c2ccccc2N(CCO)C1=O)c1cc2ccccc2[nH]1 (racemic) [Example 12, (RS)-N-(2,3-Dihydro-1-(2-hydroxyethyl)-2-oxo-5-phenyl-1 H-1,4-benzodiazepin-3-yl)-1 H-indole-2-carboxamide] | 8.62 | – | – | 0.24 | 0.16 | –
3 | CN1C(=O)C(NC(=O)Nc2cc3c(cn2)[nH]c2ccccc23)N=C(c2ccccc2)c2ccccc21 (racemic) [Example 13, (RS)-N-(2,3-Dihydro-1-methyl-2-oxo-5-phenyl-1H-1,4-benzodiazepin-3-yl)-N'-9H-pyrido(3,4-b)indol-3-yl-urea] | 7.85 | – | 7.15 | 6.4 | – | –
4 | CN1C(=O)C(NC(=O)Nc2ccc(N)nc2)N=C(c2ccccc2)c2ccccc21 (racemic) [Example 14, (RS)-N-(6-Amino-3-pyridyl)-N'-(2,3-dihydro-l-methyl-2-oxo-5-phenyl-1H-1,4-benzodiazepin-3-yl)-urea] | – | 6.40 | 7.96 | – | – | 2.7
5 | Cc1cccc(NC(=O)N[C@@H]2N=C(c3ccccc3)c3ccccc3N(C)C2=O)c1 [Example 5, (R)-N-(2,3-Dihydro-1-methyl-2-oxo-5-phenyl-1 H-1,4-benzodiazepin-3-yl)-N'-(3-methylphenyl)-urea] | – | 8.96 | 8.70 | – | – | –
6 | CN1C(=O)[C@@H](NC(=O)c2cc3ccccc3n2CC(=O)O)N=C(c2ccccc2)c2ccccc21 [Example 6, 3(S)-3-(2-(N-carboxymethylindole)carbonylamino)-1,3-dihydro-1-methyl-5-phenyl-2H-1,4-benzodiazepin-2-one] | 9.89 | – | – | 0.07 | 0.129 | –
7 | CN1C(=O)[C@@H](NC(=O)c2cc3ccccc3n2CCCC(=O)O)N=C(c2ccccc2)c2ccccc21 [Example 7, (S)-4-[-2-(((2,3-Dihydro-1-methyl-2-oxo-5-phenyl-1H-1,4-benzodiazepin-3-yl)amino)carbonyl)-1H-indolyl-1]-bu tanoic acid] | 10.00 | – | – | 0.24 | 0.23 | –
8 | CN1C(=O)[C@H](NC(=O)Nc2cccc(C(=O)O)c2)N=C(c2ccccc2)c2ccccc21 [Example 10, (R)-3-((((2,3-Dihydro-l-methyl-2-oxo-5-phenyl-1H-1,4-benzodiazepin-3-yl)amino)carbonyl)amino)benzoic a cid] | – | 8.05 | 8.41 | – | – | 0.049
9 | CN1C(=O)C(NC(=O)c2cc3cc(OCC(=O)O)ccc3[nH]2)N=C(c2ccccc2)c2ccccc21 (stereo not shown) [Example 16, 1,3-Dihydro-3-(5-carboxymethyloxyindole-2-carbonylamino)-1-methyl-5-phenyl-2H-1,4-benzodiazepin 2-one] | 7.64 | – | – | – | 0.16 | –
10 | Cc1cccc(NC(=O)NC2N=C(c3ccccc3)c3ccccc3N(CCO)C2=O)c1 (stereo not shown) [Example 17, N-(2,3-Dihydro-1-(2-hydroxyethyl)-2-oxo-5-phenyl-1 H-1,4-benzodiazepin-3-yl)-N'-(3-methylphenyl)-urea] | 7.16 | 8.42 | 7.92 | – | – | –
11 | COc1cccc(NC(=O)NC2N=C(c3ccccc3)c3ccccc3N(CCN(C)C)C2=O)c1 (stereo not shown) [Example 18, N-(2,3-Dihydro-1-(2-dimethylaminoethyl)-2-oxo-5-phenyl-1H-1,4-benzodiazepin-3-yl) -N'-(3-methoxyphenyl)-urea] | 5.59 | 8.00 | 7.62 | – | – | –
12 | CCOC(=O)c1cccc(NC(=O)N[C@@H]2N=C(c3ccccc3)c3ccccc3N(C)C2=O)c1 [Example 19, (R)-3-((((2,3-Dihydro-1-methyl-2-oxo-5-phenyl-1H-1,4-benzodiazepin-3-yl)amino)carbonyl)amino)benzoic acid ethyl ester] | 7.70 | – | – | 0.018 | 0.026 | –
